In US9772337B2, “Compositions and methods for functional gylcomics” (Emory University, priority 2010, dated 2017):

Test system: anti-GD1a antibody
Experiment: BBG GSL-AOAB shotgun microarray binding assay with anti-GD1a antibody
Details: fractions printed at 10 μM on NHS-slides

Substance: Neu5Acα2-3Galβ1-3GalNAcβ1-4(Neu5Acα2-3)Galβ1-4Glcβ1-R [GD1a-AOAB]
- binding of anti-GD1a antibody to BBG GSL-AOAB fractions: primarily bound
